Reference: US20240400591A1 (Jacobio Pharmaceuticals Co., Ltd., priority 2021, published 2024)
Like-named read-outs stand apart in the source and are kept apart here.

Columns and labels:
[1] = biological target: T1, His-p53 Y220C (94-294) protein (Homo sapiens, UniProt P04637, Y220C); test: In vitro DNA binding assay (HTRF); type: biochemical; conditions: % activation normalized to 2 μM Ref-1a high control
T1 construct: His-p53 Y220C (94-294) protein

NUGC3 (P53 Y220C) = test: Cell viability assay (CellTiter-Glo, 6 days), NUGC3; type: cell-based
Summary of the method: (§1)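 After a 6-day compound exposure following overnight plating, ATP luminescence (CellTiter-Glo) gave percent viability relative to DMSO-treated cells and cell-free medium controls. IC50 = concentration at 50% viability, from 4-parameter logistic or Excel fit.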

NUGC4 (P53 WT) = test: Cell viability assay (CellTiter-Glo, 6 days), NUGC4; type: cell-based
Summary of the method: as §1

[2] = system: NUGC-3_P53_Luc single clonal cell line (p53 Y220C); test: Reporter gene assay (p53 RE luciferase); type: cell-based
Summary of the method: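 Luminescence normalised to DMSO-only (0%) and 10 μM Ref-1a (100%) wells gives % activity, fitted by 4-parameter logistic or Excel to yield EC50 at 50%. Reporter line: NUGC-3 with p53 response element-luc2P, compound-treated 6 h at 37 °C.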

[3] = Homo sapiens, NUGC-3, 144 h, cell viability, 6 days, CellTiter-Glo, read-out: NUGC3 (P53 Y220C) IC50
[4] = Homo sapiens, NUGC-4, 144 h, cell viability, 6 days, CellTiter-Glo, read-out: NUGC4 (P53 WT) IC50
[5] = Homo sapiens, NUGC-3, 6 h, luciferase reporter, 6 hours, normalized to Ref-1a (10 μM) high control, read-out: p53(Y220C)_NUGC-3 EC50
[6] = Homo sapiens, NUGC-3, luciferase reporter, 6 hours, normalized to Ref-1a (10 μM) high control, read-out: p53(Y220C)_NUGC-3 EC50
[7] = cell viability, 6 days, CellTiter-Glo, read-out: NUGC3 (P53 Y220C) IC50
[8] = cell viability, 6 days, CellTiter-Glo, read-out: NUGC4 (P53 WT) IC50
[9] = luciferase reporter, 6 hours, normalized to Ref-1a (10 μM) high control, read-out: p53(Y220C)_NUGC-3 EC50

## COc1cc(P(C)(C)=O)ccc1NCC#Cc1sc2c(N[C@@H]3CCN(C4CCN(C)CC4)C[C@@H]3F)cccc2c1CC(F)(F)F (racemic) [Example 72, (Z)-(4-((3-(7-((3-fluoro-1′-methyl-[1,4′-bipiperidin]-4-yl)amino)-3-(2,2,2-trifluoroethyl)benzo[b]thiophen-2-yl)prop-2-yn-1-yl)amino)-3-methoxyphenyl)dimethylphosphine oxide]
[1]
  EC50: 41 nM
NUGC3 (P53 Y220C); [3]
  IC50: 0.43 µM
NUGC4 (P53 WT); [4]
  IC50: 4.43 µM
[2]; [5]
  EC50: 0.21 µM

## COc1cc(P(C)(C)=O)ccc1NCC#Cc1sc2c(NC3CCN(CCCF)CC3)cccc2c1CC(F)(F)F [Example 205, (4-((3-(7-((1-(3-fluoropropyl)piperidin-4-yl)amino)-3-(2,2,2-trifluoroethyl)benzo[b]thiophen-2-yl)prop-2-yn-1-yl)amino)-3-methoxyphenyl)dimethylphosphine oxide]
[1]
  EC50: 65 nM
NUGC3 (P53 Y220C); [3]
  IC50: 1.32 µM
NUGC4 (P53 WT); [4]
  IC50: 4.1 µM
[2]; [6]
  EC50: 0.55 µM

## COc1cc(C(=O)NC2CCN(C)CC2(F)F)ccc1NCC#Cc1sc2c(N[C@@H]3CCN(C)C[C@@H]3F)cccc2c1CC(F)(F)F (relative stereo) [Example 94, N-(3,3-difluoro-1-methylpiperidin-4-yl)-4-((3-(7-(((Z)-3-fluoro-1-methylpiperidin-4-yl)amino)-3-(2,2,2-trifluoroethyl)benzo[b]thiophen-2-yl)prop-2-yn-1-yl)amino)-3-methoxybenzamide]
[1]
  EC50: 85 nM
NUGC3 (P53 Y220C); [3]
  IC50: 1.84 µM
NUGC4 (P53 WT); [4]
  IC50: 2.75 µM
[2]; [6]
  EC50: 0.19 µM

## COCCNC(=O)c1cc(P(C)(C)=O)ccc1NCC#Cc1sc2c(N[C@@H]3CCN(C)C[C@@H]3Cl)cccc2c1CC(F)(F)F [Example 219, 2-((3-(7-(((3S,4R)-3-chloro-1-methylpiperidin-4-yl)amino)-3-(2,2,2-trifluoroethyl)benzo[b]thiophen-2-yl)prop-2-yn-1-yl)amino)-5-(dimethylphosphoryl)-N-(2-methoxyethyl)benzamide]
[1]
  EC50: 45 nM
NUGC3 (P53 Y220C); Homo sapiens, NUGC-3, 144 h, read-out: NUGC3 (P53 Y220C) IC50 (μM)
  IC50: 0.36 µM
NUGC4 (P53 WT); Homo sapiens, NUGC-4, 144 h, read-out: NUGC4 (P53 WT) IC50 (μM)
  IC50: 19.5 µM
[2]; Homo sapiens, NUGC-3, 6 h, read-out: p53(Y220C)_NUGC-3 EC50 (μM)
  EC50: 0.09 µM

## COc1cc(P(C)(C)=O)ccc1NCC#Cc1sc2c(NC3CC(C)N(C)C(C)C3)cccc2c1CC(F)(F)F (centres unmarked) [Example 143, (3-methoxy-4-((3-(3-(2,2,2-trifluoroethyl)-7-((1,2,6-trimethylpiperidin-4-yl)amino)benzo[b]thiophen-2-yl)prop-2-yn-1-yl)amino)phenyl)dimethylphosphine oxide]
[1]
  EC50: 106 nM
NUGC3 (P53 Y220C); [3]
  IC50: 1.94 µM
NUGC4 (P53 WT); [4]
  IC50: 6.94 µM
[2]; [6]
  EC50: 0.45 µM

## COc1cc(P(C)(C)=O)ccc1NCC#Cc1sc2c(N[C@@H]3CCN(C(C)C)C[C@@H]3F)cccc2c1CC(F)(F)F (racemic) [Example 86, (4-((3-(7-(((Z)-3-fluoro-1-isopropylpiperidin-4-yl)amino)-3-(2,2,2-trifluoroethyl)benzo[b]thiophen-2-yl)prop-2-yn-1-yl)amino)-3-methoxyphenyl)dimethylphosphine oxide]
[1]
  EC50: 37 nM
NUGC3 (P53 Y220C); [3]
  IC50: 0.79 µM
NUGC4 (P53 WT); [4]
  IC50: 4.56 µM
[2]; [5]
  EC50: 0.14 µM

## COc1cc(C(N)=O)ccc1NCC#Cc1sc2c(NC3CCN(C)CC3F)cccc2c1CC(F)(F)F (centres unmarked) [Example 46, 4-((3-(7-(((Z)-3-fluoro-1-methylpiperidin-4-yl)amino)-3-(2,2,2-trifluoroethyl)benzo[b]thiophen-2-yl)prop-2-yn-1-yl)amino)-3-methoxybenzamide]
[1]
  EC50: 47 nM
NUGC3 (P53 Y220C); [7]
  IC50: 1.35 µM
NUGC4 (P53 WT); [8]
  IC50: 10.5 µM
[2]; [9]
  EC50: 0.17 µM

## COc1cc(P(C)(C)=O)ccc1NCC#Cc1sc2c(N[C@@H]3CCN(C4COC4)C[C@@H]3F)cccc2c1CC(F)(F)F (racemic) [Example 75, (4-((3-(7-(((Z)-3-fluoro-1-(oxetan-3-yl)piperidin-4-yl)amino)-3-(2,2,2-trifluoroethyl)benzo[b]thiophen-2-yl)prop-2-yn-1-yl)amino)-3-methoxyphenyl)dimethylphosphine oxide]
[1]
  EC50: 82 nM
NUGC3 (P53 Y220C); [3]
  IC50: 1.02 µM
NUGC4 (P53 WT); [4]
  IC50: 5.34 µM
[2]; [6]
  EC50: 0.16 µM

## COc1cc(C(N)=O)ncc1NCC#Cc1sc2c(NC3CCN(C)CC3F)cccc2c1CC(F)(F)F (centres unmarked) [Example 61, 5-((3-(3-(2,2,2-trifluoroethyl)-7-(((Z)-3-fluoro-1-methylpiperidin-4-yl)amino)benzo[b]thiophen-2-yl)prop-2-yn-1-yl)amino)-4-methoxypicolinamide]
[1]
  EC50: 102 nM
NUGC3 (P53 Y220C); [7]
  IC50: 4.53 µM
NUGC4 (P53 WT); [8]
  IC50: 13 µM
[2]; [9]
  EC50: 0.53 µM

## COc1cc(P(C)(C)=O)ccc1NCC#Cc1sc2c(NC3C(C)CN(C)CC3C)cccc2c1CC(F)(F)F (centres unmarked) [Example 132, (3-methoxy-4-((3-(3-(2,2,2-trifluoroethyl)-7-(((E)-1,3,5-trimethylpiperidin-4-yl)amino)benzo[b]thiophen-2-yl)prop-2-yn-1-yl)amino)phenyl)dimethylphosphine oxide]
[1]
  EC50: 59 nM
NUGC3 (P53 Y220C); [7]
  IC50: 0.82 µM
NUGC4 (P53 WT); [8]
  IC50: 3.08 µM
[2]; [9]
  EC50: 0.26 µM

## CN1CC[C@@H](Nc2cccc3c(CC(F)(F)F)c(C#CCNc4ccc(P(C)(C)=O)cc4-c4cnco4)sc23)[C@@H](F)C1 [Example 214, (4-((3-(7-(((3S,4R)-3-fluoro-1-methylpiperidin-4-yl)amino)-3-(2,2,2-trifluoroethyl)benzo[b]thiophen-2-yl)prop-2-yn-1-yl)amino)-3-(oxazol-5-yl)phenyl)dimethylphosphine oxide]
[1]
  EC50: 38 nM
NUGC3 (P53 Y220C); [3]
  IC50: 0.38 µM
NUGC4 (P53 WT); [4]
  IC50: 13.9 µM
[2]; [5]
  EC50: 0.1 µM

## COc1c(NCC#Cc2sc3c(N[C@@H]4CCN(C)C[C@@H]4F)cccc3c2CC(F)(F)F)ccc(P(C)(C)=O)c1F [Example 194, (2-fluoro-4-((3-(7-(((3S,4R)-3-fluoro-1-methylpiperidin-4-yl)amino)-3-(2,2,2-trifluoroethyl)benzo[b]thiophen-2-yl)prop-2-yn-1-yl)amino)-3-methoxyphenyl)dimethylphosphine oxide]
[1]
  EC50: 33 nM
NUGC3 (P53 Y220C); [3]
  IC50: 1.75 µM
NUGC4 (P53 WT); [4]
  IC50: 12.2 µM
[2]; [6]
  EC50: 0.15 µM

## COc1nc(P(C)(C)=O)ncc1NCC#Cc1sc2c(N[C@@H]3CCN(C)C[C@@H]3F)cccc2c1CC(F)(F)F [Example 208, (5-((3-(7-(((3S,4R)-3-fluoro-1-methylpiperidin-4-yl)amino)-3-(2,2,2-trifluoroethyl)benzo[b]thiophen-2-yl)prop-2-yn-1-yl)amino)-4-methoxypyrimidin-2-yl)dimethylphosphine oxide]
[1]
  EC50: 43 nM
NUGC3 (P53 Y220C); [3]
  IC50: 2.13 µM
NUGC4 (P53 WT); [4]
  IC50: 13.7 µM
[2]; [6]
  EC50: 0.71 µM

## COc1cc(P(C)(C)=O)ccc1NCC#Cc1sc2c(N[C@H]3CCN(C)C[C@H]3F)cccc2c1CC(F)(F)F [Example 114, (4-((3-(7-(((3R,4S)-3-fluoro-1-methylpiperidin-4-yl)amino)-3-(2,2,2-trifluoroethyl)benzo[b]thiophen-2-yl)prop-2-yn-1-yl)amino)-3-methoxyphenyl)dimethylphosphine oxide]
[1]
  EC50: 57 nM
NUGC3 (P53 Y220C); [3]
  IC50: 1.24 µM
NUGC4 (P53 WT); [4]
  IC50: 10.5 µM
[2]; [5]
  EC50: 0.12 µM

## COc1cc(S(C)(=O)=O)ccc1NCC#Cc1cc2c(N[C@H]3CCN(C)C[C@H]3F)cccc2n1CC(F)(F)F [Ref-1b, N-((3R,4S)-3-fluoro-1-methylpiperidin-4-yl)-2-(3-((2-methoxy-4-(methylsulfonyl)phenyl)amino)prop-1-yn-1-yl)-1-(2,2,2-trifluoroethyl)-1H-indol-4-amine, reference compound]
[1]
  EC50: 96 nM
NUGC3 (P53 Y220C); [3]
  IC50: 1.92 µM
NUGC4 (P53 WT); [4]
  IC50: 12.5 µM
[2]; [6]
  EC50: 0.2 µM

## COc1cc(P(C)(C)=O)ccc1NCC#Cc1sc2c(N[C@@H]3CCN(C4CCC4)C[C@@H]3F)cccc2c1CC(F)(F)F (racemic) [Example 103, (4-((3-(7-(((Z)-1-cyclobutyl-3-fluoropiperidin-4-yl)amino)-3-(2,2,2-trifluoroethyl)benzo[b]thiophen-2-yl)prop-2-yn-1-yl)amino)-3-methoxyphenyl)dimethylphosphine oxide]
[1]
  EC50: 91 nM
NUGC3 (P53 Y220C); [3]
  IC50: 1.28 µM
NUGC4 (P53 WT); [4]
  IC50: 2.65 µM
[2]; [6]
  EC50: 0.21 µM

## COc1cc(P(C)(C)=O)ccc1NCC#Cc1sc2c(N[C@@H]3CCN(C)C[C@@H]3Cl)cccc2c1CC(F)(F)F [Example 158, (3S,4R)-3-chloro-N-[2-[3-(4-dimethylphosphoryl-2-methoxy-anilino)prop-1-ynyl]-3-(2,2,2-trifluoroethyl)benzothiophen-7-yl]-1-methyl-piperidin-4-amine]
[1]
  EC50: 30 nM
NUGC3 (P53 Y220C); [3]
  IC50: 0.37 µM
NUGC4 (P53 WT); [4]
  IC50: 3.95 µM
[2]; [5]
  EC50: 0.09 µM
